What was measured:
[1] = system: Beet Armyworm (Spodoptera exigua, LAPHEG); assay: Bioassay on Beet Armyworm (BAW), 128-well diet tray assay; type: in vivo; details: Species BAW (Beet Armyworm), read-out: BAW (Biological Results, rating)
Outline: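 Artificial diet surface-treated with 50 μg/cm^2 test molecule in 90:10 acetone-water, dried, then infested with one to five second instar larvae per well. Held covered and vented at 25° C., 14:10 light-dark for five to seven days; percent mortality recorded per well and averaged over eight wells.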

[2] = system: Cabbage Looper (Trichoplusia ni, TRIPNI); assay: Bioassay on Cabbage Looper (CL), 128-well diet tray assay; type: in vivo; details: Trichoplusia ni; Species CL (Cabbage Looper); read-out: CL (Biological Results, rating)
Experimental: Certain molecules disclosed in this document were tested against BAW and CL using procedures described in the following examples. In the reporting of the results, the “BAW & CL Rating Table” was used (See Table Section).
Bioassays on CL were conducted using a 128-well diet tray assay. one to five second instar CL larvae were placed in each well (3 mL) of the diet tray that had been previously filled with 1 mL of artificial diet to which 50 μg/cm^2 of the test molecule (dissolved in 50 μL of 90:10 acetone-water mixture) had been applied (to each of eight wells) and then allowed to dry. Trays were covered with a clear self-adhesive cover, vented to allow gas exchange, and held at 25° C., 14:10 light-dark for five to seven days. Percent mortality was recorded for the larvae in each well; activity in the eight wells was then averaged. The results are indicated in the table entitled “Table ABC: Biological Results” (See Table Section).

Work on `Cc1c(Cl)cc([C@H]2[C@H](C(=O)Nc3ccc(Cl)c(C(=O)N(C)c4ccc(F)cc4)c3)C2(Cl)Cl)cc1Cl` (relative stereo) [F120, trans-2-Chloro-5-(2,2-dichloro-3-(3,5-dichloro-4-methylphenyl)cyclopropane-1-carboxamido)-N-(4-fluorophenyl)-N-methylbenzamide] yielded a pest or weed control at 50 µg/cm2 [1] of 50 to 100% and a pest or weed control at 50 µg/cm2 [2] of 50 to 100%.
Work on `Cc1c(Cl)cc([C@H]2[C@H](C(=O)Nc3ccc(Cl)c(C(=O)Nc4c(F)cccc4F)c3)C2(Cl)Cl)cc1Cl` (relative stereo) [F121, trans-2-Chloro-5-(2,2-dichloro-3-(3,5-dichloro-4-methylphenyl)cyclopropane-1-carboxamido)-N-(2,6-difluorophenyl)benzamide] yielded a pest or weed control at 50 µg/cm2 [1] of 50 to 100% and a pest or weed control at 50 µg/cm2 [2] of 50 to 100%.
`Cc1cc([C@H]2[C@H](C(=O)Nc3ccc(Cl)c(C(=O)Nc4c(F)cccc4F)c3)C2(Cl)Cl)cc(Cl)c1Cl` (relative stereo) [F125, trans-2-Chloro-5-(2,2-dichloro-3-(3,4-dichloro-5-methylphenyl)cyclopropane-1-carboxamido)-N-(2,6-difluorophenyl)benzamide] was tested, and the pest or weed control at 50 µg/cm2 [1] was 50 to 100% and the pest or weed control at 50 µg/cm2 [2] was 50 to 100%.
Compound `O=C(Nc1ccc(F)cc1)c1cccc(NC(=O)[C@H]2[C@H](c3cc(Cl)cc(Cl)c3)C2(Cl)Cl)n1` (relative stereo) [F133, trans-6-(2,2-Dichloro-3-(3,5-dichlorophenyl)cyclopropane-1-carboxamido)-N-(4-fluorophenyl)picolinamide] has a pest or weed control at 50 µg/cm2 [1] of 50 to 100% and a pest or weed control at 50 µg/cm2 [2] of 50 to 100%.
Work on `Cc1ccc(C(=O)Nc2ccc(F)cc2)cc1NC(=O)[C@H]1[C@H](c2cc(Cl)cc(Cl)c2)C1(Cl)Cl` (relative stereo) [F134, trans-3-(2,2-Dichloro-3-(3,5-dichlorophenyl)cyclopropane-1-carboxamido)-N-(4-fluorophenyl)-4-methylbenzamide] yielded a pest or weed control at 50 µg/cm2 [1] of 50 to 100% and a pest or weed control at 50 µg/cm2 [2] of 50 to 100%.
`O=C(Nc1ccc([N+](=O)[O-])cc1)c1cc(NC(=O)[C@H]2[C@H](c3cc(Cl)cc(Cl)c3)C2(Cl)Cl)ccc1Cl` (relative stereo) [F137, trans-2-chloro-5-(2,2-dichloro-3-(3,5-dichlorophenyl)cyclopropane-1-carboxamido)-N-(4-nitrophenyl)benzamide] showed a pest or weed control at 50 µg/cm2 [1] of 50 to 100% and a pest or weed control at 50 µg/cm2 [2] of 50 to 100%.
Work on `O=C(Nc1cnns1)c1cc(NC(=O)[C@H]2[C@H](c3cc(Cl)cc(Cl)c3)C2(Cl)Cl)ccc1Cl` (relative stereo) [F138, trans-2-Chloro-5-(2,2-dichloro-3-(3,5-dichlorophenyl)cyclopropane-1-carboxamido)-N-(1,2,3-thiadiazol-5-yl)benzamide] yielded a pest or weed control at 50 µg/cm2 [1] of 50 to 100% and a pest or weed control at 50 µg/cm2 [2] of 50 to 100%.
For `O=C(Nc1cc[n+]([O-])cc1)c1cc(NC(=O)[C@H]2[C@H](c3cc(Cl)cc(Cl)c3)C2(Cl)Cl)ccc1Cl` (relative stereo) [F140, trans-4-(2-Chloro-5-(2,2-dichloro-3-(3,5-dichlorophenyl)cyclopropane-1-carboxamido)benzamido)pyridine 1-oxide], the pest or weed control at 50 µg/cm2 [1] was 50 to 100% and the pest or weed control at 50 µg/cm2 [2] was 50 to 100%.
With `O=C(Nc1ccc(F)cc1)c1cc(NC(=O)[C@H]2[C@H](c3cc(Cl)cc(Cl)c3)C2(Cl)Cl)cc[n+]1[O-]` (relative stereo) [F141, trans-4-(2,2-Dichloro-3-(3,5-dichlorophenyl)cyclopropane-1-carboxamido)-2-((4-fluorophenyl)carbamoyl)pyridine 1-oxide] the pest or weed control at 50 µg/cm2 [1] was 50 to 100% and the pest or weed control at 50 µg/cm2 [2] was 50 to 100%.
For `CS(=O)(=O)c1ccc(NC(=O)c2cc(NC(=O)[C@H]3[C@H](c4cc(Cl)cc(Cl)c4)C3(Cl)Cl)ccc2Cl)cc1` (relative stereo) [F143, trans-2-Chloro-5-(2,2-dichloro-3-(3,5-dichlorophenyl)cyclopropane-1-carboxamido)-N-(4-(methylsulfonyl)phenyl)benzamide], the pest or weed control at 50 µg/cm2 [1] was 50 to 100% and the pest or weed control at 50 µg/cm2 [2] was 50 to 100%.
Work on `N#Cc1ccc(NC(=O)c2cc(NC(=O)[C@H]3[C@H](c4cc(Cl)cc(Cl)c4)C3(Cl)Cl)ccc2Cl)c(F)c1` (relative stereo) [F144, trans-2-Chloro-N-(4-cyano-2-fluorophenyl)-5-(2,2-dichloro-3-(3,5-dichlorophenyl)cyclopropane-1-carboxamido)benzamide] yielded a pest or weed control at 50 µg/cm2 [1] of 50 to 100% and a pest or weed control at 50 µg/cm2 [2] of 50 to 100%.
`O=C(Nc1ncco1)c1cc(NC(=O)[C@H]2[C@H](c3cc(Cl)cc(Cl)c3)C2(Cl)Cl)ccc1Cl` (relative stereo) [F145, trans-2-Chloro-5-(2,2-dichloro-3-(3,5-dichlorophenyl)cyclopropane-1-carboxamido)-N-(oxazol-2-yl)benzamide] showed a pest or weed control at 50 µg/cm2 [1] of 50 to 100% and a pest or weed control at 50 µg/cm2 [2] of 50 to 100%.
`CSc1ccc(NC(=O)c2cc(NC(=O)[C@H]3[C@H](c4cc(Cl)cc(Cl)c4)C3(Cl)Cl)ccc2Cl)cc1` (relative stereo) [F149, trans-2-Chloro-5-(2,2-dichloro-3-(3,5-dichlorophenyl)cyclopropane-1-carboxamido)-N-(4-(methylthio)phenyl)benzamide] gave a pest or weed control at 50 µg/cm2 [1] of 50 to 100% and a pest or weed control at 50 µg/cm2 [2] of 50 to 100%.
Work on `CS(=O)(=O)c1ccc(NC(=O)[C@H]2[C@H](c3cc(Cl)cc(Cl)c3)C2(Cl)Cl)cc1C(=O)Nc1ccc(F)cc1` (relative stereo) [F157, trans-5-(2,2-dichloro-3-(3,5-dichlorophenyl)cyclopropane-1-carboxamido)-N-(4-fluorophenyl)-2-(methylsulfonyl)benzamide] yielded a pest or weed control at 50 µg/cm2 [1] of 50 to 100% and a pest or weed control at 50 µg/cm2 [2] of 50 to 100%.
Compound `C[S+]([O-])c1ccc(NC(=O)[C@H]2[C@H](c3cc(Cl)cc(Cl)c3)C2(Cl)Cl)cc1C(=O)Nc1ccc(F)cc1` (relative stereo) [F158, trans-5-(2,2-dichloro-3-(3,5-dichlorophenyl)cyclopropane-1-carboxamido)-N-(4-fluorophenyl)-2-(methylsulfinyl)benzamide] has a pest or weed control at 50 µg/cm2 [1] of 50 to 100% and a pest or weed control at 50 µg/cm2 [2] of 50 to 100%.
`C[S+]([O-])c1ccc(NC(=O)c2cc(NC(=O)[C@H]3[C@H](c4cc(Cl)cc(Cl)c4)C3(Cl)Cl)ccc2Cl)cc1` (relative stereo) [F159, trans-2-Chloro-5-(2,2-dichloro-3-(3,5-dichlorophenyl)cyclopropane-1-carboxamido)-N-(4-(methylsulfinyl)phenyl)benzamide] was tested, and the pest or weed control at 50 µg/cm2 [1] was 50 to 100% and the pest or weed control at 50 µg/cm2 [2] was 50 to 100%.
`O=C(Nc1c(F)cccc1F)c1cc(NC(=O)[C@H]2[C@H](c3cc(F)cc(Cl)c3)C2(Cl)Cl)ccc1Cl` (relative stereo) [F160, trans-2-Chloro-5-(2,2-dichloro-3-(3-chloro-5-fluorophenyl)cyclopropane-1-carboxamido)-N-(2,6-difluorophenyl)benzamide] showed a pest or weed control at 50 µg/cm2 [1] of 50 to 100% and a pest or weed control at 50 µg/cm2 [2] of 50 to 100%.
`COc1c(Cl)cc([C@H]2[C@H](C(=O)Nc3ccc(Cl)c(C(=O)Nc4ccc(NC(C)=O)cc4)c3)C2(Cl)Cl)cc1Cl` (relative stereo) [F181, trans-N-(4-Acetamidophenyl)-2-chloro-5-(2,2-dichloro-3-(3,5-dichloro-4-methoxyphenyl)cyclopropane-1-carboxamido)benzamide] showed a pest or weed control at 50 µg/cm2 [1] of 50 to 100% and a pest or weed control at 50 µg/cm2 [2] of 50 to 100%.
Work on `CNc1ccc(NC(=O)c2cc(NC(=O)[C@H]3[C@H](c4cc(Cl)c(OC)c(Cl)c4)C3(Cl)Cl)ccc2Cl)cc1` (relative stereo) [F182, trans-2-Chloro-5-(2,2-dichloro-3-(3,5-dichloro-4-methoxyphenyl)cyclopropane-1-carboxamido)-N-(4-(methylamino)phenyl)benzamide] yielded a pest or weed control at 50 µg/cm2 [1] of 50 to 100% and a pest or weed control at 50 µg/cm2 [2] of 50 to 100%.
In the case of `CN(C(=O)[C@H]1[C@H](c2cc(Cl)cc(Cl)c2)C1(Cl)Cl)c1ccc(Cl)c(C(=O)Nc2ccc(F)cc2)c1` (relative stereo) [F183, trans-2-Chloro-5-(2,2-dichloro-3-(3,5-dichlorophenyl)-N-methylcyclopropane-1-carboxamido)-N-(4-fluorophenyl)benzamide], the pest or weed control at 50 µg/cm2 [1] is reported as 50 to 100% and the pest or weed control at 50 µg/cm2 [2] is reported as 50 to 100%.
Compound `N#Cc1cc(F)ccc1NC(=O)c1cc(NC(=O)[C@H]2[C@H](c3cc(Cl)c(Cl)c(Cl)c3)C2(Cl)Cl)ccc1Cl` (relative stereo) [F191, trans-2-Chloro-N-(2-cyano-4-fluorophenyl)-5-(2,2-dichloro-3-(3,4,5-trichlorophenyl)cyclopropane-1-carboxamido)benzamide] has a pest or weed control at 50 µg/cm2 [1] of 50 to 100% and a pest or weed control at 50 µg/cm2 [2] of 50 to 100%.
`N#Cc1cc(F)ccc1NC(=O)c1cc(NC(=O)[C@H]2[C@H](c3ccc(F)c(Cl)c3)C2(Cl)Cl)ccc1Cl` (relative stereo) [F192, trans-2-Chloro-N-(2-cyano-4-fluorophenyl)-5-(2,2-dichloro-3-(3-chloro-4-fluorophenyl)cyclopropane-1-carboxamido)benzamide] was tested, and the pest or weed control at 50 µg/cm2 [1] was 50 to 100% and the pest or weed control at 50 µg/cm2 [2] was 50 to 100%.
Compound `Cc1cc(N(C)C(=O)OC(C)(C)C)ccc1NC(=O)c1cc(NC(=O)[C@H]2[C@H](c3cc(Cl)cc(Cl)c3)C2(Cl)Cl)ccc1Cl` (relative stereo) [F198, trans-tert-Butyl-(4-(2-chloro-5-(2,2-dichloro-3-(3,5-dichlorophenyl)cyclopropane-1-carboxamido)benzamido)-3-methylphenyl)(methyl)carbamate] has a pest or weed control at 50 µg/cm2 [1] of 50 to 100% and a pest or weed control at 50 µg/cm2 [2] of 50 to 100%.

— patent publication US10219516B2, “Molecules having pesticidal utility, and intermediates, compositions, and processes, related thereto” (priority 2015, dated 2019)
